Source: patent publication US10092570B2 (Incyte Corporation, priority 2011, dated 2018)
Counter-ions that a name gives are not always drawn.

What follows are molecules tested against PI3Kδ (p110δ/p85α) (Homo sapiens (Human), UniProt O00329) (assay: Example A3: PI3Kδ scintillation proximity assay). Conditions: assay not specified.
Format: biochemical
How it was run: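 p110δ/p85α (4 nM) phosphorylated 20 μM PIP2 with 20 μM ATP plus [γ-33P]ATP in MOPS pH 6.7, MgCl2, DTT, CHAPS, 0.5% DMSO, at RT. Stopped with EDTA/excess ATP, product captured on WGA SPA beads overnight and counted; IC50 from percent control activity versus log inhibitor.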

Sequence of PI3Kδ (p110δ/p85α) (O00329 whole entry): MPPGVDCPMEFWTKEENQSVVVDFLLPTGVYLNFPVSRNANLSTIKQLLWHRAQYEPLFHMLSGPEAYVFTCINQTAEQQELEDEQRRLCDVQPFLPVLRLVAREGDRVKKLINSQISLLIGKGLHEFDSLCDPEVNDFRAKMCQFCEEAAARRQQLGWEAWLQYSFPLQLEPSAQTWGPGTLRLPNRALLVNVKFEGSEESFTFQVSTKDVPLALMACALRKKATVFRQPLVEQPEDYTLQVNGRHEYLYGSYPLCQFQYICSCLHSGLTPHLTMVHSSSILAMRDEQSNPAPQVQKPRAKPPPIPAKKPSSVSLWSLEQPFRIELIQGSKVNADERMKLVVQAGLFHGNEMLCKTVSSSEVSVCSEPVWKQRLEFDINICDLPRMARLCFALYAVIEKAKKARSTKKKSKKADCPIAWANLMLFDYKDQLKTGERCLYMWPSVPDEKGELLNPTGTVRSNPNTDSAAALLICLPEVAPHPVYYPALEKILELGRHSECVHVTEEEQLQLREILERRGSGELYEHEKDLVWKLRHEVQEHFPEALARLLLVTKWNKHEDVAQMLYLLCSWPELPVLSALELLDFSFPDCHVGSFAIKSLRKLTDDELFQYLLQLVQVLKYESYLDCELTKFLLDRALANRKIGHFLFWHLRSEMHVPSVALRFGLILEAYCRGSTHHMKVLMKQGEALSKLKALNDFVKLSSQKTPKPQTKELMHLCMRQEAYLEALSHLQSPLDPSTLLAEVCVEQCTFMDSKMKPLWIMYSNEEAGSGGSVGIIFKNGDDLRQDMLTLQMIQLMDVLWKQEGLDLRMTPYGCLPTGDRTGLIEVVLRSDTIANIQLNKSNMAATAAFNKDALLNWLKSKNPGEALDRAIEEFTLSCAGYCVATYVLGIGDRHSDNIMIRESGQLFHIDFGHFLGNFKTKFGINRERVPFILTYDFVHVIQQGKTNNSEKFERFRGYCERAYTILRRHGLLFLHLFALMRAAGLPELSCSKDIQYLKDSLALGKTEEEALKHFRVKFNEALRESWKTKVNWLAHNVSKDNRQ
Sequence of PI3Kδ (p110δ/p85α) (P27986 whole entry partner): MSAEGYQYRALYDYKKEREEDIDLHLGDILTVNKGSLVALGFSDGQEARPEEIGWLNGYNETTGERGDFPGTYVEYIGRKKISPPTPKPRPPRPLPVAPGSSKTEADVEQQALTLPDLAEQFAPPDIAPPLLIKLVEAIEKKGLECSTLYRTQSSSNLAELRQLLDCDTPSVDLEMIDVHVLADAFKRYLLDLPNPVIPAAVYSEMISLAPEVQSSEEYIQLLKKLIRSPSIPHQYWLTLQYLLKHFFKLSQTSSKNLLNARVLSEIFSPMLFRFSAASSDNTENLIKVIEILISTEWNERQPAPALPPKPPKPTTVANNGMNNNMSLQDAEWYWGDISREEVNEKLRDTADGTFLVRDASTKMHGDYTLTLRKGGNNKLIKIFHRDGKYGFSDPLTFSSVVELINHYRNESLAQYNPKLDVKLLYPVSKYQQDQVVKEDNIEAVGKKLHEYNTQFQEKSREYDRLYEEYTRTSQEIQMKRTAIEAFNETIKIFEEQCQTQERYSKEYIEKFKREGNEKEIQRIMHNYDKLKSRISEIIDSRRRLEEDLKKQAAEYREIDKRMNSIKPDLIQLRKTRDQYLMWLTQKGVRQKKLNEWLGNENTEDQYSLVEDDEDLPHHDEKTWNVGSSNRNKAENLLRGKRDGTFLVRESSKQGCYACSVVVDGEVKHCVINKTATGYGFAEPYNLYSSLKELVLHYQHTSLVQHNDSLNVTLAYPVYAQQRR

Molecule | relative activity among the four separated diastereomers (peaks 1-4)
CCOc1c(C(C)n2nc(C)c3c(N)ncnc32)cc(Cl)c(F)c1C1CNC(=O)O1 (stereo not drawn) [Example 357, 5-{3-[1-(4-amino-3-methyl-1H-pyrazolo[3,4-d]pyrimidin-1-yl)ethyl]-5-chloro-2-ethoxy-6-fluorophenyl}-1,3-oxazolidin-2-one] | most active enantiomer

Same assay, conditions: scintillation proximity assay, 20 μM ATP, 4 nM PI3Kδ; read-out: PI3Kδ SPA IC50

Molecule | IC50
COc1c(C(C)n2nc(C)c3c(N)ncnc32)cc(Cl)c(C)c1C1CN(C2CCOCC2)C1 (racemic) [Example 64, 1-(1-{5-chloro-2-methoxy-4-methyl-3-[1-(tetrahydro-2H-pyran-4-yl)azetidin-3-yl]phenyl}ethyl)-3-methyl-1H-pyrazolo[3,4-d]pyrimidin-4-amine] | < 10 nM
COc1c(C(C)n2nc(C)c3c(N)ncnc32)cc(Cl)c(C)c1C1CN(C2COC2)C1 (racemic) [Example 63, 1-{1-[5-chloro-2-methoxy-4-methyl-3-(1-oxetan-3-ylazetidin-3-yl)phenyl]ethyl}-3-methyl-1H-pyrazolo[3,4-d]pyrimidin-4-amine] | < 10 nM
CCOc1c(C(C)n2nc(C)c3c(N)ncnc32)cc(Cl)c(C#N)c1C1CN(C(=O)OC(C)C)C1 (single isomer, unassigned) [Example 254, Isopropyl 3-{3-[1-(4-amino-3-methyl-1H-pyrazolo[3,4-d]pyrimidin-1-yl)ethyl]-5-chloro-6-cyano-2-ethoxyphenyl}azetidine-1-carboxylate] | < 10 nM
COc1c(C(C)n2nc(C)c3c(N)ncnc32)cc(Cl)c(C#N)c1C1CN(C2CCOCC2)C1 (single isomer, unassigned) [Example 277, 4-[1-(4-Amino-3-methyl-1H-pyrazolo[3,4-d]pyrimidin-1-yl)ethyl]-6-chloro-3-methoxy-2-[1-(tetrahydro-2H-pyran-4-yl)azetidin-3-yl]benzonitrile] | < 10 nM
COc1c(C(C)n2nc(C)c3c(N)ncnc32)cc(Cl)c(C)c1C1CN(C2CCOC2)C1 (stereo not drawn) [Example 107, 1-(1-{5-Chloro-2-methoxy-4-methyl-3-[1-(tetrahydrofuran-3-yl)azetidin-3-yl]phenyl}ethyl)-3-methyl-1H-pyrazolo[3,4-d]pyrimidin-4-amine] | < 10 nM
COCCN1CC(c2c(C)c(Cl)cc(C(C)n3nc(C)c4c(N)ncnc43)c2OC)C1 (racemic) [Example 9, 1-(1-{5-Chloro-2-methoxy-3-[1-(2-methoxyethyl)azetidin-3-yl]-4-methylphenyl}ethyl)-3-methyl-1H-pyrazolo[3,4-d]pyrimidin-4-amine] | < 10 nM
CCOc1c(C(C)n2nc(C)c3c(N)ncnc32)cc(Cl)c(C#N)c1C1CN(C(C)(C)C(=O)OC(C)(C)C)C1 (stereo not drawn) [Example 236, tert-Butyl 2-(3-{3-[1-(4-amino-3-methyl-1H-pyrazolo[3,4-d]pyrimidin-1-yl)ethyl]-5-chloro-6-cyano-2-ethoxyphenyl}azetidin-1-yl)-2-methylpropanoate] | < 10 nM
CNC(=O)N1CC(c2c(C#N)c(Cl)cc(C(C)n3nc(C)c4c(N)ncnc43)c2OC)C1 (single isomer, unassigned) [Example 294, 3-{3-[1-(4-Amino-3-methyl-1H-pyrazolo[3,4-d]pyrimidin-1-yl)ethyl]-5-chloro-6-cyano-2-methoxyphenyl}-N-methylazetidine-1-carboxamide] | < 10 nM
COc1c(C(C)n2nc(C(F)F)c3c(N)ncnc32)cc(Cl)c(F)c1C1CN(CCO)C1 (stereo not drawn) [Example 74, 2-[3-(3-{1-[4-Amino-3-(difluoromethyl)-1H-pyrazolo[3,4-d]pyrimidin-1-yl]ethyl}-5-chloro-6-fluoro-2-methoxyphenyl)azetidin-1-yl]ethanol] | < 10 nM
CCOc1c(C(C)n2nc(C#C[C@H](C)O)c3c(N)ncnc32)cc(Cl)c(C)c1-c1ccc(C(=O)N(C)C)nc1 (stereo partly drawn) [Example 80, 5-[3-(1-{4-Amino-3-[(3S)-3-hydroxybut-1-yn-1-yl]-1H-pyrazolo[3,4-d]pyrimidin-1-yl}ethyl)-5-chloro-2-ethoxy-6-methylphenyl]-N,N-dimethylpyridine-2-carboxamide bis(trifluoroacetate)] | < 10 nM
COc1c(C(C)n2nc(C)c3c(N)ncnc32)cc(Cl)c(C#N)c1C1CN(C(N)=O)C1 (single isomer, unassigned) [Example 293, 3-{3-[1-(4-Amino-3-methyl-1H-pyrazolo[3,4-d]pyrimidin-1-yl)ethyl]-5-chloro-6-cyano-2-methoxyphenyl}azetidine-1-carboxamide] | < 10 nM
CCOc1c(C(C)n2nc(C)c3c(N)ncnc32)cc(Cl)c(C#N)c1C1CN(CC2CCOC2)C1 (single isomer, unassigned) [Example 231, 4-[1-(4-Amino-3-methyl-1H-pyrazolo[3,4-d]pyrimidin-1-yl)ethyl]-6-chloro-3-ethoxy-2-[1-(tetrahydrofuran-3-ylmethyl)azetidin-3-yl]benzonitrile] | < 10 nM
CCOc1c(C(C)n2nc(-c3ccc(C(=O)NC)nc3)c3c(N)ncnc32)cc(Cl)c(C)c1-c1ccc(C(=O)N(C)C)nc1 (racemic) [Example 59, 5-{3-[1-(4-amino-3-{6-[(methylamino)carbonyl]pyridin-3-yl}-1H-pyrazolo[3,4-d]pyrimidin-1-yl)ethyl]-5-chloro-2-ethoxy-6-methylphenyl}-N,N-dimethylpyridine-2-carboxamide tris(trifluoroacetate)] | < 10 nM
COc1c(C(C)n2nc(C)c3c(N)ncnc32)cc(Cl)c(C)c1C1CN(CC(C)C#N)C1 (stereo not drawn) [Example 162, 3-(3-{3-[1-(4-Amino-3-methyl-1H-pyrazolo[3,4-d]pyrimidin-1-yl)ethyl]-5-chloro-2-methoxy-6-methylphenyl}azetidin-1-yl)-2-methylpropanenitrile] | < 10 nM
COc1c(C(C)n2nc(C)c3c(N)ncnc32)cc(Cl)c(C#N)c1C1CN(S(=O)(=O)C(C)C)C1 (single isomer, unassigned) [Example 287, 4-[1-(4-Amino-3-methyl-1H-pyrazolo[3,4-d]pyrimidin-1-yl)ethyl]-6-chloro-2-[1-(isopropylsulfonyl)azetidin-3-yl]-3-methoxybenzonitrile] | < 10 nM
CCNC(=O)c1c(C)c(Cl)cc(C(C)n2nc(-c3ccc4oc(N)nc4c3)c3c(N)ncnc32)c1OCC (racemic) [Example 89, 3-(1-(4-Amino-3-(2-aminobenzo[d]oxazol-5-yl)-1H-pyrazolo[3,4-d]pyrimidin-1-yl)ethyl)-5-chloro-2-ethoxy-N-ethyl-6-methylbenzamide] | < 10 nM
CCNC(=O)c1c(C)c(Cl)cc(C(C)n2nc(C)c3c(N)ncnc32)c1-c1cc(F)cc(F)c1 (racemic) [Example 37, 6-[1-(4-amino-3-methyl-1H-pyrazolo[3,4-d]pyrimidin-1-yl)ethyl]-4-chloro-N-ethyl-3′,5′-difluoro-3-methylbiphenyl-2-carboxamide] | < 10 nM
COc1c(C(C)n2nc(C)c3c(N)ncnc32)cc(Cl)c(C)c1C1CN(C)C1 (racemic) [Example 5, 1-{1-[5-chloro-2-methoxy-4-methyl-3-(1-methylazetidin-3-yl)phenyl]ethyl}-3-methyl-1H-pyrazolo[3,4-d]pyrimidin-4-amine] | < 10 nM
COc1c(C(C)n2nc(C)c3c(N)ncnc32)cc(Cl)c(C#N)c1C1CN(C(=O)N(C)C)C1 (single isomer, unassigned) [Example 296, 3-{3-[1-(4-Amino-3-methyl-1H-pyrazolo[3,4-d]pyrimidin-1-yl)ethyl]-5-chloro-6-cyano-2-methoxyphenyl}-N,N-dimethylazetidine-1-carboxamide] | < 10 nM
COc1c(C(C)n2nc(C)c3c(N)ncnc32)cc(Cl)c(Cl)c1C1CN(C[C@@H](C)O)C1 (stereo partly drawn) [Example 302, (2R)-1-(3-{3-[1-(4-Amino-3-methyl-1H-pyrazolo[3,4-d]pyrimidin-1-yl)ethyl]-5,6-dichloro-2-methoxyphenyl}azetidin-1-yl)propan-2-ol] | < 10 nM
COc1c(C(C)n2ccc(=O)c3c(N)ncnc32)cc(Cl)c(C)c1C1CN(C(C)C)C1 (racemic) [Example 34, 4-Amino-8-{1-[5-chloro-3-(1-isopropylazetidin-3-yl)-2-methoxy-4-methylphenyl]ethyl}pyrido[2,3-d]pyrimidin-5(8H)-one] | < 10 nM
COC(=O)N1CC(c2c(C#N)c(Cl)cc(C(C)n3nc(C)c4c(N)ncnc43)c2OC)C1 (single isomer, unassigned) [Example 289, Methyl 3-{3-[1-(4-amino-3-methyl-1H-pyrazolo[3,4-d]pyrimidin-1-yl)ethyl]-5-chloro-6-cyano-2-methoxyphenyl}azetidine-1-carboxylate] | < 10 nM
4-[1-(4-Amino-3-methyl-1H-pyrazolo[3,4-d]pyrimidin-1-yl)ethyl]-6-chloro-2-[1-(2-hydroxyethyl)azetidin-3-yl]-3-methoxybenzonitrile-d4 [Example 297] | < 10 nM
CCNC(=O)c1c(C)c(Cl)cc(C(C)n2nc(-c3cnc4[nH]ccc4c3)c3c(N)ncnc32)c1OCC (racemic) [Example 91, 3-{1-[4-Amino-3-(1H-pyrrolo[2,3-b]pyridin-5-yl)-1H-pyrazolo[3,4-d]pyrimidin-1-yl]ethyl}-5-chloro-2-ethoxy-N-ethyl-6-methylbenzamide] | < 10 nM
CCOc1c(C(C)n2nc(C)c3c(N)ncnc32)cc(Cl)c(C)c1C1CN(C(=O)c2cnn(C)c2)C1 (stereo not drawn) [Example 101, 1-[1-(5-Chloro-2-ethoxy-4-methyl-3-{1-[(1-methyl-1H-pyrazol-4-yl)carbonyl]azetidin-3-yl}phenyl)ethyl]-3-methyl-1H-pyrazolo[3,4-d]pyrimidin-4-amine trifluoroacetate] | < 10 nM
CCOc1c(C(C)n2nc(CC#N)c3c(N)ncnc32)cc(Cl)c(C)c1-c1ccc(C(=O)N(C)C)nc1 (racemic) [Example 165, 5-(3-{1-[4-Amino-3-(cyanomethyl)-1H-pyrazolo[3,4-d]pyrimidin-1-yl]ethyl}-5-chloro-2-ethoxy-6-methylphenyl)-N,N-dimethylpyridine-2-carboxamide] | < 10 nM
